Assays:
HeLa cells [1] = assay: Flow cytometry quantification of TAMRA-R8 uptake; type: cell-based; details: TAMRA-R8 3 μM, activator 10-250 nM, 25 min, flow cytometry mean fluorescence intensity, quadruplicate
Description: (§1) Success in artificial vesicle assays encouraged us to conduct transport experiments of fluorescently labeled peptides in living cells (Figure 5). We first employed confocal fluorescence microscopy to evaluate counterion activator 2 for the intracellular transport of a carboxytetramethylrhodamine-labeled R8 peptide (TAMRA-R8) into the cytosol of HeLa cells. Cationic peptides usually remain trapped inside the endosomes when incubated with cells at low μM concentrations.[32],[44] […] The cytometry experiments validated the E isomer selective transport and indicated a four-fold intracellular delivery enhancement (Figure 5C and Figure S52). […]
(§2) Confocal microscopy assays. […] Fluorescence of Hoechst was excited with the 405 nm laser and the emission was detected at 450/50 nm; for the TAMRA fluorescence, an excitation of 561 nm was used while the emission was detected at 620/60 nm. […]
(§3) Flow cytometry assays. […] TAMRA fluorescence was excited at 532 nm (green laser) and […]
measured on a Guava easyCyte BG HT collecting the emission at 583/26 nm (Yellow-G channel), using InCyte v3.2 (GuavaSoft, Millipore). Cells with typical FSC and SSC parameters were selected and the mean fluorescence intensity was calculated for each sample. Each condition was measured in quadruplicate. […]

HeLa cells [2] = assay: Confocal fluorescence microscopy of TAMRA-R8 cellular uptake; type: cell-based; details: TAMRA-R8 3 μM with activator (10, 50, 100, 250 nM), 25 min at 37 °C
Description: as §1
Figure 5 (A) Schematic representation of oligoarginine intracellular delivery by both isomers of 2. (B) Confocal fluorescence microscopy images of the cellular uptake of 3 μM TAMRA-R8 (in red) facilitated by E-2/Z-2. […] (C) Fluorescence intensity of HeLa cells incubated with 3 μM TAMRA-R8 in the presence of different E-2/Z-2 concentrations, measured by flow cytometry. […]
as §2, §3

## CCCCc1ccc(/N=N/c2ccc(OCCCOc3c4cc(S(=O)(=O)[O-])cc3Cc3cc(S(=O)(=O)[O-])cc(c3O)Cc3cc(S(=O)(=O)[O-])cc(c3O)Cc3cc(S(=O)(=O)[O-])cc(c3O)C4)cc2)cc1.[Li+].[Li+].[Li+].[Li+] [E-2]
HeLa cells [1]
  Intracellular delivery enhancement of TAMRA-R8, E isomer relative to Z isomer: four-fold
HeLa cells [2]
  Intracellular TAMRA-R8 fluorescence in the presence of activator: strong diffuse fluorescence signal in the cytosol, nucleus, and nucleolus

Reference: paper PMC10288505, “Photoswitchable Calixarene Activators for Controlled Peptide Transport across Lipid Membranes” (Journal of the American Chemical Society, 2023)
